Reference: paper PMC4728560 (Scientific Reports, 2016)

Tests used:
Bcl-xL [1] = molecular target: T1, Bcl-xL (Homo sapiens, UniProt Q07817, DEL27-82); experiment: Heterocomplex formation with Bcl-xL (native MS, SEC-MALS, gel filtration); format: binding; conditions: native MS: Bcl-xL(Δ27-81ΔCT), equimolar 100 μM, 30 °C, checked at 5 μM (for TCTP-R21A)
T1 construct: one containing the fragment 1-26, and the other the fragment 81-209; 6His (N, cleaved yes); made in house; host or cells: Escherichia coli BL21 (DE3) pRARE2
Experimental: When not specified, proteins tested for binding experiments were mixed at 100 μM, dialyzed against 10 mM CHES pH 9, 50 mM NaCl, 1 mM DTT or TCEP, depending on the analysis, and heated overnight at 30 °C.
For binding experiments, 100 to 200PL of protein mixture were loaded on a size exclusion chromatography (S200, GE Healthcare) column, while elution profiles were measured by UV absorption at 280 nm.
SEC-MALS experiments were performed on a multi-angle light scattering detector (miniDAWN TREOS, Wyatt Technologies) coupled in-line with SEC and an interferometric refractometer (Optilab T-rEX, Wyatt Technologies). See Supplementary Information for full details.
Prior to any mass spectrometry experiment, protein buffer was exchanged twice against a 50 mM ammonium acetate (NH4Ac) solution at pH 9.0 using microcentrifuge gel filtration columns (Zeba 0.5 ml, Thermo Scientific, Rockford, IL). Protein concentration was determined spectrophotometrically. […]
Supplementary Table 1. Measured molecular weights in denaturing conditions Sample Theoretical molecular Measured molecular Associated mass (Da) mass (Da) species […]
Gel filtration. For binding experiments, 100 to 200PL of protein mixture were loaded on a size exclusion chromatography (S200, GE Healthcare) column, while elution profiles were measured by UV absorption at 280nm. […]

Bcl-xL [2] = experiment: In cellulo BRET between Luciferase-fused TCTP and YFP-fused Bcl-xL; format: cell-based; conditions: MCF-7 cells; 16 h treatment
Description: See Supplementary Information for full details.
Twenty-four hours later, cells
Protein expression and purification

Bcl-xL [3] = molecular target: T1, Bcl-xL; experiment: Isothermal Titration Calorimetry, peptides and Bcl-xL; format: binding; conditions: ITC, 30 °C, 50 mM ammonium bicarbonate pH 9, TCTP-BH3-R21A 1.26 mM (Fig. 1B)
Experimental: In red, the conserved hydrophobic residues of the BH3 domain (named h1 (P1), h2 (P2), h3 (P3) and h4 (P4)). In green, the GD signature of BH3 domains. In blue, the conserved charged residues. […] Each experiment was carried out at 30 °C in 50 mM ammonium bicarbonate pH 9.
Titrations were done by isothermal titration calorimetry (ITC) assays using an ITC200 calorimeter from GE-Microcal. See Supplementary Information for full details. […]
hybrid-FLAG peptides, rabbit anti-FLAG (Sigma) and anti-rabbit-FITC (Abcam) were used.
Isothermal Titration Calorimetry experiments
Titrations were done by isothermal titration calorimetry (ITC) assays using an ITC200 calorimeter from GE-Microcal. Bcl-xL was used at 0.065 mM in 50mM bicarbonate ammonium […]
pH 9. […] Titrations were carried out at 30°C. Data were analyzed using Microcal Origin software provided by the ITC manufacturer (GE-Microcal).
High-throughput crystallization screening was performed using a Mosquito liquid transfer robot (TTP Labtech) and the sitting-drop vapor diffusion method. Crystals were obtained at 20°C by mixing 0.2μL of reservoir solution (100mM Pipes pH 7, 1.5M Tris-sodium citrate) with 0.2μL of […]
ammonium bicarbonate pH 9.3 and by equilibrating the mixture against 40μl of reservoir

[4] = test system: Bax mediated cytochrome c release, Bcl-xL; experiment: Cytochrome c release from purified mitochondria by tBid and Bax in the presence of Bcl-xL; format: biochemical; conditions: mouse liver mitochondria; 5 nM tBid, 50 nM Bax, 300 nM Bcl-xL; 15 min, 30 °C; Western blot
Experimental: (A–E) in vitro reconstitution assay on liposome permeabilization. […] The treated Bcl-xL was then added to reactions containing ANTS-DPX liposomes, 100 nM Bax and 20 nM of either cBid (A,B) or cBidmt1(C,D) at pH 7. Liposome permeabilization was quantified by fluorescence after 5h incubation at 37 °C where 100% release was defined as the fluorescence change due to lipid solubilization with 1% Triton X-100. […] Error bars, std. dev. n = 3. To compare between the TCTP treated groups and the Control group statistically, two-way ANOVA test was performed for (A–D) and one-way ANOVA test was performed for (E). […] Colored asterisks above each data point indicate the statistical significance (*p < 0.05; **p < 0.01, no asterisks if p ≥ 0.05). A complete statistical analysis is provided in Supplementary Table 2–4. […] Cyto c extra-mito: in the supernatant, analysed by Western blot. […]
to highlight the pre-incubation), pH 9, 30 C° before being added to the mitochondria at their final concentrations. […] Cytochrome c was detected in the mitochondrial fraction (Cyto c intra-mito) or in the supernatant (Cyto c extra-mito) by Western blot analysis. […]
Cytochrome c release assay. […] Mitochondrial pellets and the corresponding supernatant fractions were subjected to SDS-polyacrylamide gel electrophoresis and analyzed by Western blotting for cytochrome c.

[5] = test system: thymocytes from TCTP^+/− mice; experiment: Complementation (viability) of γ-irradiated TCTP+/− thymocytes; format: cell-based, mouse; conditions: γ-irradiation 2.5 Gy, overnight culture, 0 to 1000 nM
Description: Figure 4 Molecular/functional analysis of the h1 (P1) subregion of BH3-TCTP. […]
Peptides used for in vitro assays:
WT-TCTP (11-31): […]
R21A-TCTP (11-31): […]
Hybrid Bax/TCTP: […]
Peptides used for in vivo assays:
WT-TCTP (1-31) : […]
Hybrid Bax-TCTP: […]
TCTP-FLAG peptides used for in vivo assays:
WT-TCTP (1-31)-FLAG : […] DYKDDDDK-OH
TCTP-Bax-TCTP-FLAG: […]-OH […]
subdomain in the BH3 motif is underlined. Peptides were purchased from Smartox […]
Complementation and transduction experiments
In order to complement the haploinsufficient TCTP+/- mice with exogenous TCTP, we took advantage of the fact that the first N-terminal fragment of TCTP functions as a Protein Transduction Domain (PTD), enabling TCTP to penetrate into the cell by a mechanism hitherto […]
not well understood23,27-29. […]
of γ irradiation) and cultured, at a concentration of 10^7 cells/ml, overnight in the presence of […]
20) at concentrations ranging from 0-1000nM. For the transduction assays using WT-TCTP- […]
concentrations were 10 microM, 50 microM and 100 microM.
γ-irradiated thymocytes were fixed by adding 500ul of PFA 4% and incubated for 20 min at room temperature. The cells were washed twice with PBS and permeabilized for 10 min with 0.2% triton X-100 in PBS at room temp. The cells were washed twice with PBS. Proteins were blocked in Blocking buffer (1% BSA 0.5% Tween in PBS) 1h at room temperature. The primary antibody was added with blocking buffer and placed in a rotating wheel overnight in a cold room.
Cells were then washed 3 times with PBS and incubated with secondary antibody with blocking buffer 1h at room temperature. The cells were washed 3 times with PBS and suspended in 200 µL PBS and used for Flow Cytometry or further used for immunohistochemistry: 5 µl of each sample were mixed with 5 µl of ProLong® Gold antifade reagent (Life Technologies) and visualized, using the IX73 inverted fluorescence microscope and the cellSens™ Dimension […]
FACS analysis (BD Accuri™ C6 Cytometer (BD Biosciences) of incorporation of exogenous

T1 sequence (Q07817 with tags, fused parts or gaps DEL27-82): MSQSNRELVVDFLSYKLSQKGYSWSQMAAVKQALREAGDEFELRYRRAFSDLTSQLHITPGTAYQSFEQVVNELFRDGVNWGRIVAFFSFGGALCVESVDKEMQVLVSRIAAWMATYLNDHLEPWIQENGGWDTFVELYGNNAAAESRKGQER

Question: With `CN(C)CC[C@H](CSc1ccccc1)Nc1ccc(S(=O)(=O)NC(=O)c2ccc(N3CCN(Cc4ccccc4-c4ccc(Cl)cc4)CC3)cc2)cc1[N+](=O)[O-]` [ABT-737, reference compound] as the compound, how does the “complex formation with Bcl-xL” value (Bcl-xL [1]) read?
Answer: abrogated formation of the TCTP/Bcl-xL complexes

Question: And the “inhibition of BRET signals between TCTP and Bcl-xL” value (Bcl-xL [2])?
Answer: significantly inhibited

Question: How did the “binding to Bcl-xL” value (Bcl-xL [3]) turn out when “DEMFSDIYKIAEIADGLCLEV [TCTP11–31-R21A, R21A mutant of TCTP11–31 peptide]” was run?
Answer: does not bind to Bcl-xL

Question: “MIIYRDLISHDEMFSDIYKI [TCTP1–20, truncated TCTP peptide]” was tested. Which “potentiation of Bcl-xL (cytochrome c release)” value [4] did it give?
Answer: do not potentiate Bcl-xL

Question: How did the “rescue of TCTP+/− haploinsufficient phenotype / anti-apoptotic function” value [5] turn out when “MIIYRDLISHDEMFSDIYKIREIADGLCLEV [TCTP1–31]” was run?
Answer: rescue completely the TCTP^+/− haploinsufficient phenotype

Question: Which results are given for “MIIYRDLISHDEMKKLSECIREIADGLCLEV [hybrid mutant]”?
Answer: rescue of TCTP+/− haploinsufficient phenotype / anti-apoptotic function [5]: not able anymore to rescue the haploinsufficient phenotype; rescue of TCTP+/− haploinsufficient phenotype / anti-apoptotic function ([5]; listed as hybrid Bax(h1)-TCTP): completely abrogated its anti-apoptotic function
